In US20250213719A1, “MAGNETIC NANOPARTICLES AND METHODS OF DRUG RELEASE” (University of Notre Dame du Lac, priority 2022, published 2025) one finds cell death data, which are given here for 1 molecule.

“And” between values parts separate entries of the source, which are not always exact repeats. Equal entries are not always repeated. Where two headings read alike, the source gives them in different places.

Format in all cases: cell-based
Experiment [1] has as its system MDA-MB-231 triple-negative breast cancer cells. Conditions: free or released from Dox-MagSiNs by AC magnetic field. The procedure: (§1) The media in each well of the chamber slides was carefully aspirated, and the wells were rinsed twice with 400 μL of 1×PBS. The cells were incubated with Ethidium-homodimer Ill dye and Calcein-AM dye mix at manufacturer recommended concentrations (Life-technologies), and the slides were incubated for 30 minutes in the cell incubator, in the dark. After incubation, the wells were rinsed twice with 400 μL of 1×PBS. Lastly, 300 μL of 4% buffered parafomaldehyde was added to each well, and the slides were taken to be imaged with a NikonU inverted fluorescent microscope with a 10× lens using a standard FITC/RITC green and red fluorescent filter cubes.
Viable cell populations of treated and untreated control cancer cell lines and treated and untreated normal cell lines were determined at the end of each run using a calcein-AM/propidium iodide assay to determine total cells and viable cell populations. […] When PI does gain access to nucleic acids and intercalates, its fluorescence increases dramatically and is therefore used to identify dead cells. […]
In this study, for each sample set (control group or test group), the total number of cells with green fluorescence and the total number of cells with red fluorescence were counted as separate datasets. […] For each sample set, the percent dead-cells and percent live-cells was calculated. […]

The subject of experiment [2] is PC-3 prostate cancer cells. Nature of the experiment: Live/dead cell viability assay. The note with it: 500 nM Dox, free or released from Dox-MagSiNs by AC magnetic field, hydrochloride. The procedure: as §1
(§2) Viable cell populations of treated and untreated control cancer cell lines and treated and untreated normal cell lines were determined at the end of each run using a calcein-AM/propidium iodide assay to determine total cells and viable cell populations. The calcein-AM assay is based on the conversion of the cell permeant non-fluorescent calcein-AM dye to the fluorescent calcein dye by intracellular esterase activity in live cells. […] When PI does gain access to nucleic acids and intercalates, its fluorescence increases dramatically and is therefore used to identify dead cells. Calcein-Am and PI can be used separately or together to assess cellular viability or cell death, respectively.
(§3) In this study, for each sample set (control group or test group), the total number of cells with green fluorescence and the total number of cells with red fluorescence were counted as separate datasets. […] For each sample set, the percent dead-cells and percent live-cells was calculated. The percent live-cells was used as a measure of viability. A paired t-test under the assumption of comparing two-samples with equal variances and a >=0.05 was used to determine the statistical significance of the test-groups in comparison to the control groups.
(§4) A unidirectional magnetic field of 30-50 Gauss and an alternating magnetic field of 100 Hz, 30-50 Gauss were used for these experiments.

In experiment [3] the test system is HUVEC cells. As to the kind of experiment: Live/dead cell viability assay. Conditions: free or released from Dox-MagSiNs by AC magnetic field, permanent magnet 24 h then AC field 10 h, assay at 48 h. On the procedure: as §1, §2, §3, §4
In experiment [4] the test system is A2780 ovarian cancer cells. As to the kind of experiment: Live/dead cell viability assay. Conditions: free or released from Dox-MagSiNs by AC magnetic field. The procedure: as §1, §2, §3, §4

With `COc1cccc2c1C(=O)c1c(O)c3c(c(O)c1C2=O)C[C@@](O)(C(=O)CO)C[C@@H]3O[C@H]1C[C@H](N)[C@H](O)[C@H](C)O1.Cl` [Dox·HCl, doxorubicin hydrochloride], the cell death result in experiment [1] (20 nM Dox) was “insignificant cell death”; in experiment [1] (500 nM Dox), 4%; in experiment [2], 100%; in experiment [2] (listed as Dox), 100% and > 95%; in experiment [3] (20 nM Dox·HCl), 100%; in experiment [3] (500 nM Dox·HCl), 100%. Besides, the cell death is greater than 20% in experiment [4] (20 nM Dox); 83% in experiment [4] (500 nM Dox, hydrochloride); 83% and 80-85% in experiment [4] (500 nM Dox, listed as Dox, hydrochloride).
